≈ marks a conversion by molar mass, not a printed value. Like-named read-outs stand apart in the source and are kept apart here.
What was measured:
A549 = assay: In vitro tumor cell cytotoxicity, three day MTT microtiter assay (A549); type: cell-based, human; conditions: Homo sapiens, read-out: In vitro tumor cell cytotoxicity (IC50)
Method: (§1) A three day microtiter assay was used to measure the growth inhibition of cultured cells exposed to a range of drug concentrations. Metabolic activity was measured by the cells' ability to reduce the tetrazolium dye, MTT (3-(4,5-dimethylthiazol-2-yl-2,5-diphenyltetrazolium bromide) to a quantifiable colored end product, which absorbs at 570 nm in the visible spectrum. Surviving cells reduce the MTT dye.
(§2) Test compounds were dissolved in dimethyl sulfoxide (DMSO) and diluted, first with Earle's Balanced Salt Solution, followed by culture medium, to twice the highest concentration of compound to be tested. From this concentrated stock, two-fold serial dilutions were prepared in 96-well microtiter trays, each well containing twice the desired final concentration of compound. Each concentration was tested in triplicate and compared to triplicate drug-free controls.
(§3) The cells were grown in the same medium used for diluting the compounds and then harvested using trypsinization. This involved removing the medium by aspiration; rinsing the cell monolayer twice with Earle's Balanced Salt Solution; adding trypsin (0.05%)/EDTA (0.53 mM; for each 25 cm^2, approximately 0.2 mL), tilting to cover the monolayer, and then withdrawing trypsin leaving only a thin film of solution; incubating at room temperature until the cell monolayers detached (as determined by visual and/or microscopic observation); adding medium contaiing fetal calf serum to stop the action of the trypsin and resuspend the cells; triturating to aid dissociation of cell clumps; and determining the number of cells per milliliter by electronic cell counter (e.g. Coulter Counter) or by mixing an aliquot of cell suspension with Trypan Blue (0.4% in normal saline) and counting the viable cells using a hemacytometer.
(§4) After harvesting and determination of viable cell counts, cell density was adjusted to 25,000 cells/mL. Inoculum (0.1 mL) containing the cells was then added to each well for a final concentration of 2,500 cells per well. Addition of the inoculum diluted the test compounds to the desired final concentration.
(§5) Microtiter trays were then incubated for three days at 36° C. in a humidified atmosphere containing 5% carbon dioxide. After three days, 20 microtiters of 5 mg/mL MTT in phosphate-buffered saline solution were added to each well. Trays were returned to the incubator for two to four hours to allow the surviving cells to reduce the dye. Medium and unreduced dye were removed by aspiration. DMSO was added to each well to dissolve the water-insoluble, colored end product of the dye reduction so that it could be measured spectrophotometrically at 570 nm.

P-388 = assay: In vitro tumor cell cytotoxicity, three day MTT microtiter assay (P-388); type: cell-based, mouse; conditions: P388, 72 h, read-out: In vitro tumor cell cytotoxicity (IC50)
Method: as §1, §2, §3, §4, §5

other tumor types = conditions: preliminary investigations; cited from earlier work
[1] = system: advanced breast and ovarian cancers; conditions: cited from earlier work

| Structure (SMILES) | IC50 (A549; A549, 72 h) | IC50 (P-388; Mus musculus) | also measured |
| --- | --- | --- | --- |
| C=CCO[C@H]1C[C@H]2OC[C@@]2(OC(C)=O)[C@H]2[C@H](OC(=O)c3ccccc3)[C@]3(O)C[C@H](OC(=O)[C@H](O)[C@@H](NC(=O)c4ccccc4)c4ccccc4)C(C)=C([C@@H](OC(C)=O)[C@H](O)[C@]12C)C3(C)C [Example 15, 9-Dihydrotaxol-7-O-allyl ether] | 0.001 µg/mL (≈ 0.00112 µM) | 0.0053 µg/mL (≈ 0.00592 µM) |  |
| CC(=O)OCCO[C@H]1C[C@H]2OC[C@@]2(OC(C)=O)[C@H]2[C@H](OC(=O)c3ccccc3)[C@]3(O)C[C@H](OC(=O)[C@H](O)[C@@H](NC(=O)c4ccccc4)c4ccccc4)C(C)=C([C@@H](OC(C)=O)[C@H](O)[C@]12C)C3(C)C [Example 19, 9-Dihydrotaxol 7-O-(2-Acetoxyethyl) ether] |  |  | IC50 (A549; 72 h, A549, 3 days, MTT, absorbance at 570 nm): 0.12 µg/mL (≈ 0.127 µM); IC50 (P-388; P-388 (mouse leukemia), 3 days, MTT, absorbance at 570 nm): 0.079 µg/mL (≈ 0.0839 µM) |
| CC(=O)O[C@@H]1C2=C(C)[C@@H](OC(=O)[C@H](O)[C@@H](NC(=O)c3ccccc3)c3ccccc3)C[C@@](O)([C@@H](OC(=O)c3ccccc3)[C@@H]3[C@]4(OC(C)=O)CO[C@@H]4C[C@@H]4OC(CC(O)CO)O[C@@H]1[C@]43C)C2(C)C (some centres unmarked) [Example 13, 9-Dihydrotaxol-7,9-(3,4-dihydroxy)butylidene acetal] | 0.3 µg/mL (≈ 0.318 µM) | 0.18 µg/mL (≈ 0.191 µM) |  |
| CC(=O)O[C@H]1C(=O)[C@@]2(C)[C@H]([C@H](OC(=O)c3ccccc3)[C@]3(O)C[C@H](OC(=O)[C@H](O)[C@@H](NC(=O)c4ccccc4)c4ccccc4)C(C)=C1C3(C)C)[C@]1(OC(C)=O)CO[C@@H]1C[C@@H]2O [Taxol] |  |  | activity against other tumor types (other tumor types): promising activity against a number of other tumor types; effectiveness in clinical trials [1]: effective against advanced breast and ovarian cancers in clinical trials |

From US5594157A, “Process for making taxol derivatives” (Abbott Laboratories, priority 1995, dated 1997)
